For one molecule, Ki results are on record in BindingDB's records for doi:10.1111/j.1476-5381.1995.tb15071.x (Vrije Universiteit, 1995).

The target of this assay is Sodium-dependent serotonin transporter (Cavia porcellus, UniProt O35899).

A value given as a limit tells only on which side of the number the result lay.

Sodium-dependent serotonin transporter, sequence (O35899 whole entry): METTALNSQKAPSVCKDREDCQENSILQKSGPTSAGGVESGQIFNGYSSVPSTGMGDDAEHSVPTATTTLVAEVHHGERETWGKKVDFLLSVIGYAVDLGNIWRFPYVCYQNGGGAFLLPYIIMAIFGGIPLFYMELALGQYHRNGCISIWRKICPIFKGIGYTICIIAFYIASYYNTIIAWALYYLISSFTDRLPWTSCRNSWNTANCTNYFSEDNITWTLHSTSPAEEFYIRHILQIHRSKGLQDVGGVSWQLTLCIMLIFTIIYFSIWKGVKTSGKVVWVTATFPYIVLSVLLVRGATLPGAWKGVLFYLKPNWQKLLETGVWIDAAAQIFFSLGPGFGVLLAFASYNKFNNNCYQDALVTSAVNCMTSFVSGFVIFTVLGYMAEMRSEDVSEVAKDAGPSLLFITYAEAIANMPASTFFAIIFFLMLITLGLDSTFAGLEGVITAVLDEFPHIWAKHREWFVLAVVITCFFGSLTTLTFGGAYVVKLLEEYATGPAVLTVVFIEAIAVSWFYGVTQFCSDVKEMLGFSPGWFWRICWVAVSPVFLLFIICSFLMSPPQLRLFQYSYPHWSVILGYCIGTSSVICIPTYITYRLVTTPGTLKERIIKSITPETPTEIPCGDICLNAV

For orientation: Ki means a dissociation constant, usually derived from enzyme kinetics or from competition with a known ligand. A higher Ki goes with weaker binding. As to `S=C(NC1CCCCC1)N1CCC(c2cnc[nH]2)CC1`, the Ki was > 10 µM.
